For the assay, the target named is T1, RORc ligand binding domain (Homo sapiens, UniProt P51449).
T1 construct: host or cells: E. coli
T1 sequence (P51449 269-508 limits assumed): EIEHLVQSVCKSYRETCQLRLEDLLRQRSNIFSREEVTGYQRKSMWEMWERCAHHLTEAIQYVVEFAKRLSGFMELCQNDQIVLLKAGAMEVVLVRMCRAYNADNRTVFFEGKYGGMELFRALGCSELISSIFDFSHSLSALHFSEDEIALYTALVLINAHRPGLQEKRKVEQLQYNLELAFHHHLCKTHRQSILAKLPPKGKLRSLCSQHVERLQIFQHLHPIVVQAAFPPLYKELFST
The assay is described as follows: In Vitro RORc Ligand Binding Assay (25-[3H]hydroxycholesterol radioligand filtration). To be noted: In Vitro RORc Ligand Binding Assay; Table 4; read-out: RORc IC50.

30 compounds from patent publication US9115101B2 (Genentech, Inc., priority 2012, dated 2015) can be followed below.

As a reminder, the IC50 is the concentration at which inhibition is half-maximal.

On to `CC(=O)N1C[C@@H]2CN(c3ccc(CN4[C@@H](C)CCC(c5ccccc5)S4(=O)=O)c(F)c3)C[C@@H]2C1` (stereo partly drawn) [Example 245, 1-{(3aR,6aS)-5-[3-Fluoro-4-((3S)-methyl-1,1-dioxo-6-phenyl-[1,2]thiazinan-2-ylmethyl)-phenyl]-hexahydro-pyrrolo[3,4-c]pyrrol-2-yl}-ethanone], for which the IC50 was found to be 189 nM.

Take `COC(=O)[C@H]1CN(c2ccc(CN3[C@@H](C)CCC(c4ccccc4)S3(=O)=O)c(F)c2)CCN1C(C)=O` (stereo partly drawn) [Example 260, 1-Acetyl-4-[3-fluoro-4-((3S)-methyl-1,1-dioxo-6-phenyl-[1,2]thiazinan-2-ylmethyl)-phenyl]-piperazine-2-carboxylic acid methyl ester]: the IC50 was determined as 31 nM.

As for `CC(=O)N1CCN(c2ccc(CN3[C@@H](C)CCC(c4ccccc4)S3(=O)=O)c(F)c2)C[C@@H]1C(=O)O` (stereo partly drawn) [Example 261, 1-Acetyl-4-[3-fluoro-4-((3S)-methyl-1,1-dioxo-6-phenyl-[1,2]thiazinan-2-ylmethyl)-phenyl]-piperazine-2-carboxylic acid], the IC50 was determined as 379 nM.

Turning to `CC(=O)N1CCN(c2ccc(CN3[C@@H](C)CCC(c4ccccc4)S3(=O)=O)c(F)c2)C[C@@H]1CO` (stereo partly drawn) [Example 262, 1-{4-[3-Fluoro-4-((3S)-methyl-1,1-dioxo-6-phenyl-[1,2]thiazinan-2-ylmethyl)-phenyl]-2-hydroxymethyl-piperazin-1-yl}-ethanone], the IC50 came to 82 nM.

In the case of `C[C@H]1CN(c2ccc(CN3[C@@H](C)CCC(c4ccccc4)S3(=O)=O)c(F)c2)CCN1C(=O)CC#N` (stereo partly drawn) [Example 263, 3-{4-[3-Fluoro-4-((3S)-methyl-1,1-dioxo-6-phenyl-[1,2]thiazinan-2-ylmethyl)-phenyl]-2-methyl-piperazin-1-yl}-3-oxo-propionitrile], the IC50 amounted to 15 nM.

In the case of `CC(=O)N1CCN(c2ccc(CN3[C@@H](C)CCC(c4ccccc4)S3(=O)=O)c(F)c2)C[C@H]1C` (stereo partly drawn) [Example 264, 1-{4-[3-Fluoro-4-((3S)-methyl-1,1-dioxo-6-phenyl-[1,2]thiazinan-2-ylmethyl)-phenyl]-2-methyl-piperazin-1-yl}-ethanone], the 50% inhibitory concentration (IC50) was found to be 18 nM.

Take `C[C@@H]1CC(c2ccccc2)S(=O)(=O)N(Cc2ccc(N3CCC(n4cnnc4)CC3)cc2F)C1` (stereo partly drawn) [Example 265, 2-[2-Fluoro-4-(4-[1,2,4]triazol-4-yl-piperidin-1-yl)-benzyl]-(4R)-methyl-6-phenyl-[1,2]thiazinane 1,1-dioxide]: the IC50 was 66 nM.

For `C[C@H]1CCC(c2ccccc2)S(=O)(=O)N1Cc1ccc(C(=O)NC2CC(O)C2)cc1` (stereo partly drawn) [Example 268, N-(3-Hydroxy-cyclobutyl)-4-((3S)-methyl-1,1-dioxo-6-phenyl-[1,2]thiazinan-2-ylmethyl)-benzamide], the half-inhibitory concentration (IC50) was 3250 nM.

Consider `C[C@H]1CCC(c2ccccc2)S(=O)(=O)N1Cc1ccc(C(=O)NCC2COC2)cc1` (stereo partly drawn) [Example 269, 4-((3S)-Methyl-1,1-dioxo-6-phenyl-[1,2]thiazinan-2-ylmethyl)-N-oxetan-3-ylmethyl-benzamide], for which the IC50 came out at 1670 nM.

For the compound `C[C@H]1CCC(c2ccccc2)S(=O)(=O)N1Cc1ccc(C(=O)NC2CCCC2O)cc1` (stereo partly drawn) [Example 270, N-(2-Hydroxy-cyclopentyl)-4-((3S)-methyl-1,1-dioxo-6-phenyl-[1,2]thiazinan-2-ylmethyl)-benzamide], the IC50 amounted to 2440 nM.

Turning to `C[C@H]1CCC(c2ccccc2)S(=O)(=O)N1Cc1ccc(C(=O)NCC2CCOC2)cc1` (stereo partly drawn) [Example 271, 4-((3S)-Methyl-1,1-dioxo-6-phenyl-[1,2]thiazinan-2-ylmethyl)-N-(tetrahydro-furan-3-ylmethyl)-benzamide], the IC50 worked out at 1690 nM.

For `C[C@H]1CCC(c2ccccc2)S(=O)(=O)N1Cc1ccc(C(=O)NCCCN2CCCC2=O)cc1` (stereo partly drawn) [Example 272, 4-((3S)-Methyl-1,1-dioxo-6-phenyl-[1,2]thiazinan-2-ylmethyl)-N-[3-(2-oxo-pyrrolidin-1-yl)-propyl]-benzamide], the IC50 amounted to 2890 nM.

Consider `C[C@H]1CCC(c2ccccc2)S(=O)(=O)N1Cc1ccc(C(=O)NC2CCCC(O)C2)cc1` (stereo partly drawn) [Example 273, N-(3-Hydroxy-cyclohexyl)-4-((3S)-methyl-1,1-dioxo-6-phenyl-[1,2]thiazinan-2-ylmethyl)-benzamide], for which the IC50 stood at 5470 nM.

Regarding `C[C@H]1CCC(c2ccccc2)S(=O)(=O)N1Cc1ccc(C(=O)NC2CCC(O)CC2)cc1` (stereo partly drawn) [Example 274, N-(4-Hydroxy-cyclohexyl)-4-((3S)-methyl-1,1-dioxo-6-phenyl-[1,2]thiazinan-2-ylmethyl)-benzamide], the IC50 was found to be 4410 nM.

In the case of `C[C@H]1CCC(c2ccccc2)S(=O)(=O)N1Cc1ccc(C(=O)NCCN2CCCC2=O)cc1` (stereo partly drawn) [Example 275, 4-((3S)-Methyl-1,1-dioxo-6-phenyl-[1,2]thiazinan-2-ylmethyl)-N-[2-(2-oxo-pyrrolidin-1-yl)-ethyl]-benzamide], the IC50 came to 6050 nM.

As to `CCOC(=O)N1CCC(NC(=O)c2ccc(CN3[C@@H](C)CCC(c4ccccc4)S3(=O)=O)cc2)CC1` (stereo partly drawn) [Example 276, 4-[4-((3S)-Methyl-1,1-dioxo-6-phenyl-[1,2]thiazinan-2-ylmethyl)-benzoylamino]-piperidine-1-carboxylic acid ethyl ester], the IC50 is 4440 nM.

Regarding `C[C@H]1CCC(c2ccccc2)S(=O)(=O)N1Cc1ccc(C(=O)NCCN2CCCCC2=O)cc1` (stereo partly drawn) [Example 277, 4-((3S)-Methyl-1,1-dioxo-6-phenyl-[1,2]thiazinan-2-ylmethyl)-N-[2-(2-oxo-piperidin-1-yl)-ethyl]-benzamide], the IC50 stood at 5110 nM.

With `C[C@H]1CCC(c2ccccc2)S(=O)(=O)N1Cc1ccc(C(=O)N2CCC(CO)CC2)cc1` (stereo partly drawn) [Example 278, (4-Hydroxymethyl-piperidin-1-yl)-[4-((3S)-methyl-1,1-dioxo-6-phenyl-[1,2]thiazinan-2-ylmethyl)-phenyl]-methanone], the half-inhibitory concentration (IC50) is 1100 nM.

Turning to `C[C@H]1CCC(c2ccccc2)S(=O)(=O)N1Cc1ccc(C(=O)N2CCC(C#N)CC2)cc1` (stereo partly drawn) [Example 279, 1-[4-((3S)-Methyl-1,1-dioxo-6-phenyl-[1,2]thiazinan-2-ylmethyl)-benzoyl]-piperidine-4-carbonitrile], the IC50 came out at 4280 nM.

As to `C[C@H]1CCC(c2ccccc2)S(=O)(=O)N1Cc1ccc(C(=O)N2CCCCC2CO)cc1` (stereo partly drawn) [Example 280, (2-Hydroxymethyl-piperidin-1-yl)-[4-((3S)-methyl-1,1-dioxo-6-phenyl-[1,2]thiazinan-2-ylmethyl)-phenyl]-methanone], the IC50 is 2650 nM.

With `C[C@H]1CCC(c2ccccc2)S(=O)(=O)N1Cc1ccc(C(=O)N2CCCC(CO)C2)cc1` (stereo partly drawn) [Example 281, (3-Hydroxymethyl-piperidin-1-yl)-[4-((3S)-methyl-1,1-dioxo-6-phenyl-[1,2]thiazinan-2-ylmethyl)-phenyl]-methanone], the IC50 was 2040 nM.

On to `C[C@H]1CCC(c2ccccc2)S(=O)(=O)N1Cc1ccc(C(=O)N2CCCOCC2)cc1` (stereo partly drawn) [Example 282, [4-((3S)-Methyl-1,1-dioxo-6-phenyl-[1,2]thiazinan-2-ylmethyl)-phenyl]-[1,4]oxazepan-4-yl-methanone], for which the IC50 worked out at 5060 nM.

`C[C@H]1CCC(c2ccccc2)S(=O)(=O)N1Cc1ccc(C(=O)N(C)CC2CCCO2)cc1` (stereo partly drawn) [Example 283, N-Methyl-4-((3S)-methyl-1,1-dioxo-6-phenyl-[1,2]thiazinan-2-ylmethyl)-N-(tetrahydro-furan-2-ylmethyl)-benzamide]: the IC50 was 1310 nM.

With `C[C@H]1CCC(c2ccccc2)S(=O)(=O)N1Cc1ccc(C(=O)N2CCCC(O)CC2)cc1` (stereo partly drawn) [Example 284, (4-Hydroxy-azepan-1-yl)-[4-((3S)-methyl-1,1-dioxo-6-phenyl-[1,2]thiazinan-2-ylmethyl)-phenyl]-methanone], the IC50 is 1430 nM.

As to `CC(=O)N1CCCN(C(=O)c2ccc(CN3[C@@H](C)CCC(c4ccccc4)S3(=O)=O)cc2)CC1` (stereo partly drawn) [Example 285, 1-{4-[4-((3S)-Methyl-1,1-dioxo-6-phenyl-[1,2]thiazinan-2-ylmethyl)-benzoyl]-[1,4]diazepan-1-yl}-ethanone], the 50% inhibitory concentration (IC50) amounted to 4000 nM.

For `C[C@H]1CCC(c2ccccc2)S(=O)(=O)N1Cc1ccc(C(=O)N2CCN(S(=O)(=O)N(C)C)CC2)cc1` (stereo partly drawn) [Example 286, 4-[4-((3S)-Methyl-1,1-dioxo-6-phenyl-[1,2]thiazinan-2-ylmethyl)-benzoyl]-piperazine-1-sulfonic acid dimethylamide], the IC50 is 7420 nM.

For the compound `C[C@H]1CCC(c2ccccc2)S(=O)(=O)N1Cc1ccc(C(=O)N2CCN(S(C)(=O)=O)CC2)cc1` (stereo partly drawn) [Example 287, (4-Methanesulfonyl-piperazin-1-yl)-[4-((3S)-methyl-1,1-dioxo-6-phenyl-[1,2]thiazinan-2-ylmethyl)-phenyl]-methanone], the IC50 came out at 203 nM.

With `C[C@H]1CCC(c2ccccc2)S(=O)(=O)N1Cc1ccc(C(=O)N2CCN(C(=O)C3CC3)CC2)cc1` (stereo partly drawn) [Example 288, (4-Cyclopropane carbonyl-piperazin-1-yl)-[4-((3S)-methyl-1,1-dioxo-6-phenyl-[1,2]thiazinan-2-ylmethyl)-phenyl]-methanone], the IC50 is 2670 nM.

As to `C[C@H]1CCC(c2ccccc2)S(=O)(=O)N1Cc1ccc(C(=O)N(C)C2CCS(=O)(=O)C2)cc1` (stereo partly drawn) [Example 289, N-(1,1-Dioxo-tetrahydro-thiophen-3-yl)-N-methyl-4-((3S)-methyl-1,1-dioxo-6-phenyl-[1,2]thiazinan-2-ylmethyl)-benzamide], the IC50 amounted to 1740 nM.

`C[C@H]1CCC(c2ccccc2)S(=O)(=O)N1Cc1ccc(C(=O)N2CCCC2CO)cc1` (stereo partly drawn) [Example 290, (2-Hydroxymethyl-pyrrolidin-1-yl)-[4-((3S)-methyl-1,1-dioxo-6-phenyl-[1,2]thiazinan-2-ylmethyl)-phenyl]-methanone]: the IC50 was 1500 nM.
